In ChEMBL document CHEMBL4507292 (2021):

Tests used:
[1] = molecular target: GABA-A receptor; anion channel (Rattus norvegicus) (UniProt O09028+P15431+P18506+P18508+P19969+P20236+P23574+P23576+P28471+P28473+P30191+P62813+P63079+P63138+Q91ZM7+Q9ES14); conditions: Compound concentration 10.0 uM
[2] = molecular target: Dual specificity tyrosine-phosphorylation-regulated kinase 1B (Homo sapiens) (UniProt Q9Y463); conditions: Compound concentration 1000.0 nM
[3] = molecular target: Somatostatin receptor type 3 (Homo sapiens) (UniProt P32745); test: Somatostatin sst3 Eurofins-Panlabs radioligand binding assay; conditions: concentration not given here
[4] = molecular target: Eukaryotic translation initiation factor 2-alpha kinase 1 (Homo sapiens) (UniProt Q9BQI3); conditions: Compound concentration 1000.0 nM
[5] = molecular target: Serine/threonine-protein kinase RIO1 (Homo sapiens) (UniProt Q9BRS2); conditions: Compound concentration 1000.0 nM
[6] = molecular target: Serine/threonine-protein kinase Nek2 (Homo sapiens) (UniProt P51955); conditions: Compound concentration 1000.0 nM
[7] = molecular target: Mitogen-activated protein kinase kinase kinase 15 (Homo sapiens) (UniProt Q6ZN16); conditions: Compound concentration 1000.0 nM
[8] = molecular target: Serine/threonine-protein kinase 17A (Homo sapiens) (UniProt Q9UEE5); conditions: Compound concentration 1000.0 nM
[9] = molecular target: Mitogen-activated protein kinase kinase kinase kinase 4 (Homo sapiens) (UniProt O95819); conditions: Compound concentration 1000.0 nM
[10] = test system: Phosphatidylinositol 4,5-bisphosphate 3-kinase catalytic subunit alpha isoform (Homo sapiens), P42336 [M1043I]; conditions: Compound concentration 1000.0 nM
[11] = molecular target: Serine/threonine-protein kinase Nek10 (Homo sapiens) (UniProt Q6ZWH5); conditions: Compound concentration 1000.0 nM
[12] = molecular target: Mitogen-activated protein kinase kinase kinase 20 (Homo sapiens) (UniProt Q9NYL2); conditions: Compound concentration 1000.0 nM
[13] = molecular target: SRSF protein kinase 2 (Homo sapiens) (UniProt P78362); conditions: Compound concentration 1000.0 nM
[14] = molecular target: Oxytocin receptor (Homo sapiens) (UniProt P30559); test: Oxytocin Eurofins-Panlabs radioligand binding assay; conditions: Compound concentration 10.0 uM
[15] = molecular target: Ephrin type-B receptor 1 (Homo sapiens) (UniProt P54762); conditions: Compound concentration 1000.0 nM
[16] = molecular target: Serine/threonine-protein kinase TBK1 (Homo sapiens) (UniProt Q9UHD2); conditions: Compound concentration 1000.0 nM
[17] = molecular target: Serine/threonine-protein kinase WNK2 (Homo sapiens) (UniProt Q9Y3S1); conditions: Compound concentration 1000.0 nM
[18] = molecular target: Vasopressin V1a receptor (Homo sapiens) (UniProt P37288); conditions: Compound concentration 10.0 uM
[19] = molecular target: Muscarinic acetylcholine receptor M3 (Homo sapiens) (UniProt P20309); conditions: Compound concentration 10.0 uM
[20] = molecular target: C-C chemokine receptor type 1 (Homo sapiens) (UniProt P32246); test: Chemokine CCR1 Eurofins-Panlabs radioligand binding assay; conditions: Compound concentration 10.0 uM
[21] = molecular target: Mitogen-activated protein kinase kinase kinase 6 (Homo sapiens) (UniProt O95382); conditions: Compound concentration 1000.0 nM
[22] = molecular target: Serine/threonine-protein kinase mTOR (Homo sapiens) (UniProt P42345); conditions: Compound concentration 1000.0 nM
[23] = molecular target: Vascular endothelial growth factor receptor 2 (Homo sapiens) (UniProt P35968); conditions: Compound concentration 1000.0 nM
[24] = molecular target: Serine/threonine-protein kinase TAO1 (Homo sapiens) (UniProt Q7L7X3); conditions: Compound concentration 1000.0 nM
[25] = molecular target: Death-associated protein kinase 2 (Homo sapiens) (UniProt Q9UIK4); conditions: Compound concentration 1000.0 nM
[26] = molecular target: Dual specificity mitogen-activated protein kinase kinase 4 (Homo sapiens) (UniProt P45985); conditions: Compound concentration 1000.0 nM
[27] = test system: Epidermal growth factor receptor (Homo sapiens), P00533 [UNDEFINED MUTATION]; conditions: Compound concentration 1000.0 nM
[28] = molecular target: Serine/threonine-protein kinase MARK2 (Homo sapiens) (UniProt Q7KZI7); conditions: Compound concentration 1000.0 nM
[29] = molecular target: Neuropeptide Y receptor type 2 (Homo sapiens) (UniProt P49146); test: Inhibition of Neuropeptide Y Y2 at 10 µM in the Eurofins-Panlabs radioligand binding assay (Eurofins_assay_257110); conditions: Compound concentration 10.0 uM
[30] = molecular target: Casein kinase II subunit alpha (Homo sapiens) (UniProt P68400); conditions: Compound concentration 1000.0 nM
[31] = molecular target: Ephrin type-A receptor 5 (Homo sapiens) (UniProt P54756); conditions: Compound concentration 1000.0 nM
[32] = molecular target: Vascular endothelial growth factor receptor 3 (Homo sapiens) (UniProt P35916); conditions: Compound concentration 1000.0 nM
[33] = molecular target: Macrophage metalloelastase (Homo sapiens) (UniProt P39900); test: Peptidase, Matrix Metalloproteinase-12 (MMP-12) Eurofins-Panlabs enzyme assay; conditions: Compound concentration 10.0 uM
[34] = molecular target: Type-2 angiotensin II receptor (Homo sapiens) (UniProt P50052); test: Angiotensin AT2 Eurofins-Panlabs radioligand binding assay; type: protein assay; conditions: Compound concentration 10.0 uM
[35] = molecular target: Ephrin type-A receptor 4 (Homo sapiens) (UniProt P54764); conditions: Compound concentration 1000.0 nM
[36] = molecular target: Serine/threonine-protein kinase ULK2 (Homo sapiens) (UniProt Q8IYT8); conditions: Compound concentration 1000.0 nM
[37] = molecular target: Serine/threonine-protein kinase Sgk1 (Homo sapiens) (UniProt O00141); conditions: Compound concentration 1000.0 nM
[38] = molecular target: Rho-associated protein kinase 1 (Homo sapiens) (UniProt Q13464); conditions: Compound concentration 1000.0 nM
[39] = molecular target: Serine/threonine-protein kinase SIK2 (Homo sapiens) (UniProt Q9H0K1); conditions: Compound concentration 1000.0 nM
[40] = molecular target: Ephrin type-A receptor 6 (Homo sapiens) (UniProt Q9UF33); conditions: Compound concentration 1000.0 nM
[41] = molecular target: Aurora kinase B (Homo sapiens) (UniProt Q96GD4); conditions: Compound concentration 1000.0 nM
[42] = molecular target: Somatostatin receptor type 1 (Homo sapiens) (UniProt P30872); test: Somatostatin sst1 Eurofins-Panlabs radioligand binding assay; parameters: ligand concentration 0.1 nM; conditions: Compound concentration 10.0 uM
[43] = molecular target: Dual specificity testis-specific protein kinase 1 (Homo sapiens) (UniProt Q15569); conditions: Compound concentration 1000.0 nM

Phosphatidylinositol 4,5-bisphosphate 3-kinase catalytic subunit alpha isoform (Homo sapiens), P42336 [M1043I], sequence (P42336 whole entry M1043I, canonical isoform): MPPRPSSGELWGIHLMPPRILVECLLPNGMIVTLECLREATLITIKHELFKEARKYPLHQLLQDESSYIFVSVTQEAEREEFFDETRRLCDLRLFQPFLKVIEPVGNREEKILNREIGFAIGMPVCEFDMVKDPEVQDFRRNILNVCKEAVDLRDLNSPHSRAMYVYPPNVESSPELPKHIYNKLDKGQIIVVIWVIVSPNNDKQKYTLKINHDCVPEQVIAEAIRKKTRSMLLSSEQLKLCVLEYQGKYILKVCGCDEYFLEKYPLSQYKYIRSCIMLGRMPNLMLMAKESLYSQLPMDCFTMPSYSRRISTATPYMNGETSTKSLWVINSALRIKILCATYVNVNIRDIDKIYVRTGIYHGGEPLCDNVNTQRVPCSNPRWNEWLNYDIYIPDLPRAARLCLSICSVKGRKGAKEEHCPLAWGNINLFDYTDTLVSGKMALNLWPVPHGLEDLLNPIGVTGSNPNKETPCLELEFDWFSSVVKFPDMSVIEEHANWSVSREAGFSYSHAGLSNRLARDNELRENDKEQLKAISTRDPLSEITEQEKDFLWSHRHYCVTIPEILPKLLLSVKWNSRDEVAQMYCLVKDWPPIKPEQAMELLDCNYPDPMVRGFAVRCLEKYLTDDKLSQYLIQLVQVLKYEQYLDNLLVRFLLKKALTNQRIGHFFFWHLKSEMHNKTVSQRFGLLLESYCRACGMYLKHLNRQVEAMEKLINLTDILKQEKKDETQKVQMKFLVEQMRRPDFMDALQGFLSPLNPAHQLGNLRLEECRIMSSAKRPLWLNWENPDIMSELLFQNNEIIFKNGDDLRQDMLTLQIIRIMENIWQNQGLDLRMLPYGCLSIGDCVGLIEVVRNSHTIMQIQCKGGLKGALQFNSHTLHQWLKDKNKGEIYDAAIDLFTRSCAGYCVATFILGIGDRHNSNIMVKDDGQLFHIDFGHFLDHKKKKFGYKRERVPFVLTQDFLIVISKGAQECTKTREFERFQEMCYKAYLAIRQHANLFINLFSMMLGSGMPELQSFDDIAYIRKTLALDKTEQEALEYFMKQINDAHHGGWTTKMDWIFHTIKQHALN
Aurora kinase B (Homo sapiens), sequence (Q96GD4 whole entry): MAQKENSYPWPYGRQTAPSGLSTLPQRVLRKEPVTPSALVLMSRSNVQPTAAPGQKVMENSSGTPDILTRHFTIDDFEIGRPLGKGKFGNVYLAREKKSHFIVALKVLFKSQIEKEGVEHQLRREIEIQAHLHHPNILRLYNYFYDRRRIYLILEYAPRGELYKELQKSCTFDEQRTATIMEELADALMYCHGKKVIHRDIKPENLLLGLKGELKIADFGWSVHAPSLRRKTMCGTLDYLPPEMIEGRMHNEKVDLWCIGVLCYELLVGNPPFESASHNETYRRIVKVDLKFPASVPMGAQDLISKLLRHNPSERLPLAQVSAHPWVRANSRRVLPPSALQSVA
Mitogen-activated protein kinase kinase kinase 15 (Homo sapiens), sequence (Q6ZN16 whole entry): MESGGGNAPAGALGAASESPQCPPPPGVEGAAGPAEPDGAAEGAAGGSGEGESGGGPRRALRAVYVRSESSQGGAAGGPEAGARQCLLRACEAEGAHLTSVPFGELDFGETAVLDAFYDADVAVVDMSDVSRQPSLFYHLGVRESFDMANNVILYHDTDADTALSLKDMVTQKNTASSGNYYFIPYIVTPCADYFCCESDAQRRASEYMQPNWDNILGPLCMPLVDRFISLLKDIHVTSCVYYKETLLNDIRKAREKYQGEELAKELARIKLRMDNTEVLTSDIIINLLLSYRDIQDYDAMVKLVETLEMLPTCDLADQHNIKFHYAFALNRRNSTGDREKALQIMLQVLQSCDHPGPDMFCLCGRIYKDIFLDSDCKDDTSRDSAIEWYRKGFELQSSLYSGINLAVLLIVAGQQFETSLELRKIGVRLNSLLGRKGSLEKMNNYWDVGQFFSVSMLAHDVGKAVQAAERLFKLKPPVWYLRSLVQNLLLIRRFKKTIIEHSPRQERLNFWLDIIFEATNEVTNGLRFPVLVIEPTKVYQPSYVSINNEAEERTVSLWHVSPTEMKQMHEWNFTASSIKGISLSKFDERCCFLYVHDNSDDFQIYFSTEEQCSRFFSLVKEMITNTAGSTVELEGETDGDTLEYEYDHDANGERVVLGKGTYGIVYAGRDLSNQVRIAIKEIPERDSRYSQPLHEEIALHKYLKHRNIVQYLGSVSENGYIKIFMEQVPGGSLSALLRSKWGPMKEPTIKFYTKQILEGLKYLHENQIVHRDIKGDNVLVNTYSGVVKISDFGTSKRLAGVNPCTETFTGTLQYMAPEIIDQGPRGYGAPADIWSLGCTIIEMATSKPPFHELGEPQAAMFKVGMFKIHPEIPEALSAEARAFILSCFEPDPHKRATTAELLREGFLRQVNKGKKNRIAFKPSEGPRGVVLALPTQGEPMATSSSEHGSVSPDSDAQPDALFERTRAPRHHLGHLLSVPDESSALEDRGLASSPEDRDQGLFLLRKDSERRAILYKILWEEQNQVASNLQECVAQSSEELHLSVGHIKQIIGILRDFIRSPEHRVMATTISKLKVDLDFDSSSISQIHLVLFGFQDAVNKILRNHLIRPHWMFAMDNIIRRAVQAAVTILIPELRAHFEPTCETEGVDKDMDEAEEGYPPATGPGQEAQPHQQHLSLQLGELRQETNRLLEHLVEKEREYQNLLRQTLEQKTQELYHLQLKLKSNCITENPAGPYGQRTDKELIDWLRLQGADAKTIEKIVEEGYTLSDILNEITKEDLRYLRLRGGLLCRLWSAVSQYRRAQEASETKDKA
Serine/threonine-protein kinase SIK2 (Homo sapiens), sequence (Q9H0K1 whole entry, looked up): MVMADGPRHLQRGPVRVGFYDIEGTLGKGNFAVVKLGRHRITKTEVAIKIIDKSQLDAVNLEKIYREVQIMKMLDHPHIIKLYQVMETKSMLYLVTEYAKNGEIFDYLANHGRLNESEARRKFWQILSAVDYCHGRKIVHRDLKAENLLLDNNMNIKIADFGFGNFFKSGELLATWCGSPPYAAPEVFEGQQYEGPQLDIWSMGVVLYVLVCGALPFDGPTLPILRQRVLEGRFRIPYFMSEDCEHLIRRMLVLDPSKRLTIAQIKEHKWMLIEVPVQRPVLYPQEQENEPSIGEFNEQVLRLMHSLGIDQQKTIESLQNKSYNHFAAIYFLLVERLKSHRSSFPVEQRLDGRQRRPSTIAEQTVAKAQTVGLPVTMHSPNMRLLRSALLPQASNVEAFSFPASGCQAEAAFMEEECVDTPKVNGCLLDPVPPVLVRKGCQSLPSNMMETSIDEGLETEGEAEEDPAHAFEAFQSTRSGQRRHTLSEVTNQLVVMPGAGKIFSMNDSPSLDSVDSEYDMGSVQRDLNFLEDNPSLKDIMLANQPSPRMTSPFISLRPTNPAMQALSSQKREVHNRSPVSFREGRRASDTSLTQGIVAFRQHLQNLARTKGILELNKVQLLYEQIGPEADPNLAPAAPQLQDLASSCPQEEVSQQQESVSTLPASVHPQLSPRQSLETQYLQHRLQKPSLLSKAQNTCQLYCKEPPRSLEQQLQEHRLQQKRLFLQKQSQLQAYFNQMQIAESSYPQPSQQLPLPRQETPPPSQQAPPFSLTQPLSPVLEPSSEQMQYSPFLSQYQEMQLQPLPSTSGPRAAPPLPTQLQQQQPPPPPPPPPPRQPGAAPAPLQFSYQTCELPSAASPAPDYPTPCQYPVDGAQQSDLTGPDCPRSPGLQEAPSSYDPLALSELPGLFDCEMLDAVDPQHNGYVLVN
Vascular endothelial growth factor receptor 3 (Homo sapiens), sequence (P35916 whole entry): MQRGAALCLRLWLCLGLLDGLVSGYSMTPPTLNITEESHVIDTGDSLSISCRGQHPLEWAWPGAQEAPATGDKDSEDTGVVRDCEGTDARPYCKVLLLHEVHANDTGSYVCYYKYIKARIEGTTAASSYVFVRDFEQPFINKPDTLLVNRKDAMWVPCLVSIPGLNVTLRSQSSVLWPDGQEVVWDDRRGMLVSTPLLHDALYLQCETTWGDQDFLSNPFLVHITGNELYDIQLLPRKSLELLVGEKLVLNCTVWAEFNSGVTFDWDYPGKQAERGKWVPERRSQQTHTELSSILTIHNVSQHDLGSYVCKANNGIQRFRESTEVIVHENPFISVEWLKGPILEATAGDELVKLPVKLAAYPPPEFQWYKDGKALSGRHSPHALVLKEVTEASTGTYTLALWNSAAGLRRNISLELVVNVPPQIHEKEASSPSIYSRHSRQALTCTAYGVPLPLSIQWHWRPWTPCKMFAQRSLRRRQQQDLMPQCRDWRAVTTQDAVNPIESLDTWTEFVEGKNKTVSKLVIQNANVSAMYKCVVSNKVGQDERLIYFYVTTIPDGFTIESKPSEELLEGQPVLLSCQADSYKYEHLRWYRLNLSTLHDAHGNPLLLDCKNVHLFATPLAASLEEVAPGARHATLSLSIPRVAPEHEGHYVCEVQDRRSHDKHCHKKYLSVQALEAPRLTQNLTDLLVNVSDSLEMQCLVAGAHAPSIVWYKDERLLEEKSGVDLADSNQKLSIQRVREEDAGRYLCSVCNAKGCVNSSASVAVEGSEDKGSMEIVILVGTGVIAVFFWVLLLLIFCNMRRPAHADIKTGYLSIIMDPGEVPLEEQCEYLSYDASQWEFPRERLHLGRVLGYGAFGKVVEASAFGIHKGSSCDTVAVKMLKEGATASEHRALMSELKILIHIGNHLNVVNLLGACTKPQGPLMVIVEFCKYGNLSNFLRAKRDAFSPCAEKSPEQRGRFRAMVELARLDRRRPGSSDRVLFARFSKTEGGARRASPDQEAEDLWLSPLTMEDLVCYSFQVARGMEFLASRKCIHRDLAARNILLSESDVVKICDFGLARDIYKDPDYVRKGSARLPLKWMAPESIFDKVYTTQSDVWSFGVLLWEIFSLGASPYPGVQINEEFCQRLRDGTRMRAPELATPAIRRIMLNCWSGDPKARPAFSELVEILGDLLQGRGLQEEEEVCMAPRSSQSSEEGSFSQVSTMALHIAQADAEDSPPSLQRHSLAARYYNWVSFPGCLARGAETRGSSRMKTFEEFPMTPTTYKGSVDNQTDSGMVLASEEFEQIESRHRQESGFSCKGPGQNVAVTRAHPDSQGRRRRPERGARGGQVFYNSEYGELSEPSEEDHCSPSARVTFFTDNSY

O=C(O)c1cc(-c2ccc(C3CCNCC3)cc2)c2ccc(-c3ccc(C(F)(F)F)cc3)cc2c1 [PPTN]
inactive: inhibition [1] -3.98% | residual activity [2] 88% | inhibition [3] 35% | residual activity [4] 98% | residual activity [5] 100% | residual activity [6] 100% | residual activity [7] 99% | residual activity [8] 100% | residual activity [9] 87% | residual activity [10] 100% | residual activity [11] 100% | residual activity [12] 100% | residual activity [13] 100% | inhibition [14] 0% | residual activity [15] 100% | residual activity [16] 80% | residual activity [17] 100% | inhibition [18] 3% | inhibition [19] 9.47% | inhibition [20] -9% | residual activity [21] 100% | residual activity [22] 90% | residual activity [23] 100% | residual activity [24] 100% | residual activity [25] 100% | residual activity [26] 100% | residual activity [27] 100% | residual activity [28] 100% | inhibition [29] -1% | residual activity [30] 100% | residual activity [31] 97% | residual activity [32] 100% | inhibition [33] -1% | inhibition [34] 11% | residual activity [35] 100% | residual activity [36] 100% | residual activity [37] 100% | residual activity [38] 100% | residual activity [39] 100% | residual activity [40] 100% | residual activity [41] 100% | inhibition [42] 34% | residual activity [43] 100%

Cc1c(C(=O)O)cc(-c2ccc(C3CCNCC3)cc2)c2ccc(-c3ccc(C(F)(F)F)cc3)cc12 [PPTN-NC]
inactive: inhibition [1] 1.21% | residual activity [2] 74% | residual activity [4] 77% | residual activity [5] 100% | residual activity [6] 100% | residual activity [7] 100% | residual activity [8] 99% | residual activity [9] 76% | residual activity [10] 100% | residual activity [11] 100% | residual activity [12] 100% | residual activity [13] 82% | residual activity [15] 100% | residual activity [16] 73% | residual activity [17] 100% | inhibition [19] 0.06% | residual activity [21] 100% | residual activity [22] 96% | residual activity [23] 100% | residual activity [24] 100% | residual activity [25] 100% | residual activity [26] 100% | residual activity [27] 100% | residual activity [28] 100% | residual activity [30] 100% | residual activity [31] 100% | residual activity [32] 100% | residual activity [35] 100% | residual activity [36] 100% | residual activity [37] 100% | residual activity [38] 100% | residual activity [39] 100% | residual activity [40] 100% | residual activity [41] 100% | residual activity [43] 93%
